These results are taken from ChEMBL document CHEMBL3872236, “Discovery of 2-((2-chloro-6-fluorophenyl)amino)-N-(3-fluoro-5-(trifluoromethyl)phenyl)-1-methyl-7,8-dihydro-1H-[1,4]dioxino[2',3':3,4]benzo[1,2-d]imidazole-5-carboxamide as potent, selective and efficacious microsomal prostaglandin E2 synthase-1 (mPGES-1) inhibitor” (Bioorg Med Chem Lett, 2016).

Series [1] is described as follows: in vitro. Particulars: human, liver microsomes.
Series [2] is described as follows: in vitro. Particulars: guinea pig, liver microsomes. (In general: Liver microsomes are a subcellular fraction often used to study metabolism.)
Series [3] is described as follows: in vitro. Particulars: rat, liver microsomes.

In general, fraction remaining refers to the share of the starting amount still present when the sample was taken. A high value points to less turnover.

Turning to `O=C(Nc1cc(F)cc(C(F)(F)F)c1)c1cc2nc(Nc3c(F)cccc3Cl)[nH]c2c2c1OCCO2`, the results for the amount remaining at 1 h, 1 µM in “in vitro [1]”, in “in vitro [2]” and in “in vitro [3]” were 98.2%, 95.8% and 93.8%, respectively.
